Measurements: US10844015B2, “Pyridine dicarboxamide derivatives as bromodomain inhibitors” (GlaxoSmithKline Intellectual Property (No. 2) Limited, priority 2016, dated 2020)

Assays:
BRD4 BD2 = target: T1, BRD4 BD2 (Homo sapiens, UniProt O60885, Y97A); test: BRD4 BD2 TR-FRET competition assay; type: binding; details: single mutant tandem BRD4 protein; for IC50: read-out: pIC50 in the BRD4 BD2 assay (converted)
T1 construct: BRD4 (1-477) (Y97A) and (Y390A); made in house; host or cells: E. coli (pET15b vector)
Protocol: Time Resolved Fluorescence Resonance Energy Transfer (TR-FRET) Assay
Bromodomain binding was assessed utilising a time resolved fluorescent resonance energy transfer (TR-FRET) competition assay. To enable this approach a known, high affinity, pan-BET interacting small molecule was labelled with Alexa Fluor® 647, which is a far-red-fluorescent dye (Reference Compound X). Reference Compound X acts as a reporter of bromodomain binding and is the acceptor fluorophore component of the TR-FRET pair. Europium chelate, conjugated to an anti-6*His antibody, was utilised as the donor fluorophore in the TR-FRET pair. […] A TR-FRET signal is generated when the donor and acceptor fluorophores are in close proximity, between 20-80 Å, which is enabled in this assay by binding of Reference Compound X to the bromodomain protein.
In order to generate a TR-FRET signal, donor fluorophore is excited by a laser at A337 nm, which subsequently leads to emission at A618 nm. If the acceptor fluorophore is in close proximity then energy transfer can occur, which leads to emission of Alexa Fluor® 647 at A665 nm. In the presence of competitor compound, Reference Compound X can be displaced from binding to the bromodomain. If displacement occurs, the acceptor fluorophore is no longer in proximity to the donor fluorophore, which prevents fluorescent energy transfer and, subsequently, a loss of Alexa Fluor® 647 emission at λ665 nm.
(§1) The competition of the compounds of formula (I) with Reference Compound X for binding to the BET family (BRD2, BRD3, BRD4 and BRDT) was assessed using protein truncates spanning both bromodomain 1 (BD1) and bromodomain 2 (BD2). In order to monitor differential binding to either BD1 or BD2, single residue mutations of key tyrosines to alanine were made in the acetyl lysine binding pockets. To validate this approach, a double residue mutant tandem domain protein was produced for each of the BET family members. Utilising a Fluorescence Polarisation approach, binding affinities for each of the single and double mutants for Reference Compound X were determined.
Final purification was completed by Superdex 200 prep grade size exclusion column. Purified protein was stored at −80° C. in 20 mM HEPES pH 7.5 and 100 mM NaCl.
Protocol for Bromodomain BRD2, 3, 4 and T, BD1+BD2 Mutant TR-FRET Competition Assays:
(§2) All assay components were dissolved in an assay buffer composing of 50 mM HEPES pH7.4, 50 mM NaCl, 5% Glycerol, 1 mM DTT and 1 mM CHAPS. […] The solution containing bromodomain and Reference Compound X was added to dose response dilutions of test compound or DMSO vehicle (a maximum of 0.5% DMSO is used in this assay) in Greiner 384 well black low volume microtitre plates and subsequently incubated for 30 minutes at room temperature. An equal volume of 3 nM of anti-6*His Europium chelate was added to all wells, followed by a further 30 minute incubation at room temperature. TR-FRET was detected using a Perkin Elmer Multimode plate reader, by exciting the donor fluorophore at λ337 nm and subsequently, after a delay of 50 μsecs, measuring emission of the donor and acceptor fluorophores at λ615 nm and λ665 nm, respectively. In order to control these assays, 16 replicates each of uninhibited (DMSO vehicle) and inhibited (10*IC50 concentrations of Example 11 of WO 2011/054846A1) TR-FRET assays were included on every microtitre plate.
cA four parameter curve fit of the following form was then applied: y=a+((b−a)/(1+(10^x/10^c)^d) • Where ‘a’ is the minimum, ‘b’ is the Hill slope, ‘c’ is the pIC50 and ‘d’ is the maximum.
(§3) All compounds (Examples) were each tested in the BRD4 BD1 and the BRD4 BD2 TR-FRET assays essentially as described above. Those of skill in the art will recognise that in vitro binding assays and cell-based assays for functional activity are subject to experimental variability. Accordingly, it is to be understood that the pIC50 values given below are exemplary only. pIC50 values are expressed as log10 units.

BRD4 BD2 over BRD4 BD1 = test: Calculation of selectivity for BRD4 BD2 over BRD4 BD1 from the TR-FRET assays; type: binding, Human; details: for fold selective for BRD4 BD2 over BRD4 BD1: stated from the log unit selectivity; for selectivity for BRD4 BD2 over BRD4 BD1: BRD4 BD2 pIC50 − BRD4 BD1 pIC50, in at least one of the TR-FRET assays
Protocol: as §1, §2, §3
Calculation of Selectivity for BRD4 BD2 Over BRD4 BD1
Selectivity for BRD4 BD2 over BRD4 BD1 was calculated as follows: Selectivity=BRD4BD2pIC50−BRD4BD1pIC50

[1] = system: BET family (BRD2, BRD3, BRD4 and BRDT) tandem bromodomain proteins; test: Fluorescence Polarisation binding affinities of single and double mutant tandem BET proteins for Reference Compound X; design: species or system Human
Protocol: as §1, with “determined. […] The affinities of the single mutated bromdomain tandem proteins for Reference Compound X were equi-potent with the corresponding non-mutated BET protein. […] In the TR-FRET competition assay, Reference Compound X is used at a concentration that is equivalent to the Kd for the non-mutated bromodomain, which ensures that no binding at the mutated bromodomain is detected.” for “determined.”
Recombinant Human Bromodomains [(BRD2 (1-473) (Y113A) and (Y386A), BRD3 (1-435) (Y73A) and (Y348A) BRD4 (1-477) (Y97A) and (Y390A) and BRDT (1-397) (Y66A) and (Y309A)] were expressed in E. coli cells (in pET15b vector for BRD2/3/4 and in pET28a vector for BRDT) with a 6-His tag at the N-terminal. The His-tagged Bromodomain pellet was resuspended in 50 mM HEPES (pH7.5), 300 mM NaCl, 10 mM imidazole & 1 μL/mL protease inhibitor cocktail and extracted from the E. coli cells using sonication and purified using a nickel sepharose high performance column, the proteins were washed and then eluted with a linear gradient of 0-500 mM imidazole with buffer 50 mM HEPES (pH7.5), 150 mM NaCl, 500 mM imidazole, over 20 column volumes. Final purification was completed by Superdex 200 prep grade size exclusion column. Purified protein was stored at −80° C. in 20 mM HEPES pH 7.5 and 100 mM NaCl. Protein identity was confirmed by peptide mass fingerprinting and predicted molecular weight confirmed by mass spectrometry.

| Compound | IC50 (BRD4 BD2) | fold selective for BRD4 BD2 over BRD4 BD1 (BRD4 BD2 over BRD4 BD1) | selectivity for BRD4 BD2 over BRD4 BD1 (BRD4 BD2 over BRD4 BD1) | also measured |
| --- | --- | --- | --- | --- |
| CNC(=O)c1cc(C(=O)N[C@H]2C[C@@H]2C)cc(C(OC)c2ccnc3[nH]ccc23)n1 (relative stereo) [Example 106, 6-((R*-Methoxy(1H-pyrrolo[2,3-b]pyridin-4-yl)methyl)-N^2 methyl-N^4-((1S,2S)-2-methylcyclopropyl)pyridine-2,4-dicarboxamide] | – | at least 1000 fold | – | pIC50 in the BRD4 BD2 assay (BRD4 BD2): 7.6 log10 units |
| CNC(=O)c1cc(C(=O)NC2CC2)cc([C@@H](O)c2ccccc2C)n1 (single isomer, unassigned) [Example 116, (S*)-N^4-cyclopropyl-6-(hydroxy(o-tolyl)methyl)-N^2-methylpyridine-2,4-dicarboxamide] | 1 to 10 µM | – | – | – |
| CNC(=O)c1cc(C(=O)NC2CC2C)cc(C(C)c2cncc3[nH]ccc23)n1 [Example 49, 6-((S*-1-(1H-Pyrrolo[2,3-c]pyridin-4-yl)ethyl)-N^2-methyl-N^4 ((1S,2S)-2-methylcyclopropyl)pyridine-2,4-dicarboxamide] | 0.0126 µM | at least 100 fold | 2.8 log unit | – |
| COc1ccc2c(c1)C(c1ccc(Cl)cc1)=N[C@@H](CC(=O)NCCCCCNC(=O)CCCCCC1(C)/C(=C/C=C/C=C/C3=[N+](CCCCS(=O)(=O)O)c4ccc(S(=O)(=O)O)cc4C3(C)C)N(CCCCS(=O)(=O)[O-])c3ccc(S(=O)(=O)O)cc31)c1nnc(C)n1-2 (stereo partly drawn) [Reference Compound X] | – | – | – | reduction in Kd (affinity) of double mutant tandem proteins in comparison to wild type tandem BET proteins ([1]; double residue (Tyr to Ala) mutant tandem domain proteins): > 1000 fold; reduction of Kd of the interaction between the mutated bromodomain and Reference Compound X ([1]; single mutation of Tyrosine to Alanine): > 1000 fold; affinity of single mutated bromodomain tandem proteins versus corresponding non-mutated BET protein ([1]; single residue (Tyr to Ala) mutants): equi-potent |

More lines, main results first:

| IC50 (BRD4 BD2) | Compound | fold selective for BRD4 BD2 over BRD4 BD1 (BRD4 BD2 over BRD4 BD1) | selectivity for BRD4 BD2 over BRD4 BD1 (BRD4 BD2 over BRD4 BD1) | also measured |
| --- | --- | --- | --- | --- |
| 0.0794 µM | CNC(=O)c1cc(C(=O)N[C@H]2C[C@@H]2C)cc(Cc2cncc3[nH]ccc23)n1 [Example 46, 6-((1H-Pyrrolo[2,3-c]pyridin-4-yl)methyl)-N^2-methyl-N^4-((1S,2S)-2-methylcyclopropyl)pyridine-2,4-dicarboxamide] | at least 100 fold | 2.8 log unit | – |
| 1 to 10 µM | CNC(=O)c1cc(C(=O)N[C@H]2C[C@@H]2C)cc(Cn2ccccc2=O)n1 [Example 54, N^2-Methyl-N^4-((1S,2S)-2-methylcyclopropyl)-6-((2-oxopyridin-1(2H)-yl)methyl)pyridine-2,4-dicarboxamide] | – | – | – |
| 0.0398 µM | CNC(=O)c1cc(C(=O)N[C@H]2C[C@@H]2C)cc(Cc2ccnc3[nH]ccc23)n1 [Example 80, 6-((1H-Pyrrolo[2,3-b]pyridin-4-yl)methyl)-N^2-methyl-N^4-((1S,2S)-2-methylcyclopropyl)pyridine-2,4-dicarboxamide] | at least 1000 fold | – | – |
| 0.0316 µM | CNC(=O)c1cc(C(=O)N[C@H]2C[C@@H]2C)cc(Cc2cccc3c2CCN3)n1 [Example 83, 6-(indolin-4-ylmethyl)-N^2-methyl-N^4-((1S,2S)-2-methylcyclopropyl)pyridine-2,4-dicarboxamide] | at least 100 fold | 2.9 log unit | – |
